From ChEMBL document CHEMBL4024794 (J Med Chem, 2018)
Active and inactive are the calls of the source. The rule behind the calls is not given here.

Tests used:
[1] = biological target: T1, Nicotinamide N-methyltransferase (Homo sapiens, UniProt P40261); experiment: Inhibition of human NNMT (1 to 264 residues) expressed in Escherichia coli BL21 (DE3) using nicotinamide/SAM as substrate/co-factor measured for 20 mins by SAHH-coupled fluorescent assay
T1 sequence (P40261 whole entry): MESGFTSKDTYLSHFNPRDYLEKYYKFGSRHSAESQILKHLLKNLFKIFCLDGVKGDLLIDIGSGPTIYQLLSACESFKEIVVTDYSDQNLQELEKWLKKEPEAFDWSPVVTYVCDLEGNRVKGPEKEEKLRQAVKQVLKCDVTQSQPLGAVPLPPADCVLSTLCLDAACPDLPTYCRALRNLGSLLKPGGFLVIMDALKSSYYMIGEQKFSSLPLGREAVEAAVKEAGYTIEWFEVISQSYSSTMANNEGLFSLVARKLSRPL

[2] = biological target: T1, Nicotinamide N-methyltransferase; experiment: Binding affinity to human NNMT (1 to 264 residues) expressed in Escherichia coli BL21 (DE3) by isothermal titration calorimetric method
[3] = biological target: T2, Nicotinamide N-methyltransferase (Homo sapiens) (UniProt P40261)
T2 sequence (whole entry): T1 sequence (P40261 whole entry)
Description: Binding affinity to human NNMT (1 to 264 residues) expressed in Escherichia coli BL21 (DE3) assessed as change in entropy by isothermal titration calorimetric method

[4] = biological target: T2, Nicotinamide N-methyltransferase (Homo sapiens); remark: listed apart in the source
Description: Binding affinity to human NNMT (1 to 264 residues) expressed in Escherichia coli BL21 (DE3) assessed as change in enthalpy by isothermal titration calorimetric method

[5] = biological target: T3, RNA 5'-monophosphate methyltransferase (Homo sapiens, UniProt Q7Z5W3); experiment: Inhibition of BCDIN3D (unknown origin) using [3H]-SAM as co-factor by scintillation proximity assay
T3 sequence (Q7Z5W3 whole entry): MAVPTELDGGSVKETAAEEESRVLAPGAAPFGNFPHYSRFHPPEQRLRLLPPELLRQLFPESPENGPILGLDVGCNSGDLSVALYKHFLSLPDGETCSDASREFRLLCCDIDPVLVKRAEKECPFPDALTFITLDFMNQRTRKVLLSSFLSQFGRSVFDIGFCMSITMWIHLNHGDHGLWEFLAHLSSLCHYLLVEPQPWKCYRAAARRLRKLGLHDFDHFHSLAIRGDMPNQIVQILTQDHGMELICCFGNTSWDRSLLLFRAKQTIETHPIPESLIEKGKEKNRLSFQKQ

[6] = biological target: T4, Protein arginine N-methyltransferase 7 (Homo sapiens, UniProt Q9NVM4); experiment: Inhibition of PRMT7 (unknown origin) using [3H]-SAM as co-factor by scintillation proximity assay
T4 sequence (Q9NVM4 whole entry): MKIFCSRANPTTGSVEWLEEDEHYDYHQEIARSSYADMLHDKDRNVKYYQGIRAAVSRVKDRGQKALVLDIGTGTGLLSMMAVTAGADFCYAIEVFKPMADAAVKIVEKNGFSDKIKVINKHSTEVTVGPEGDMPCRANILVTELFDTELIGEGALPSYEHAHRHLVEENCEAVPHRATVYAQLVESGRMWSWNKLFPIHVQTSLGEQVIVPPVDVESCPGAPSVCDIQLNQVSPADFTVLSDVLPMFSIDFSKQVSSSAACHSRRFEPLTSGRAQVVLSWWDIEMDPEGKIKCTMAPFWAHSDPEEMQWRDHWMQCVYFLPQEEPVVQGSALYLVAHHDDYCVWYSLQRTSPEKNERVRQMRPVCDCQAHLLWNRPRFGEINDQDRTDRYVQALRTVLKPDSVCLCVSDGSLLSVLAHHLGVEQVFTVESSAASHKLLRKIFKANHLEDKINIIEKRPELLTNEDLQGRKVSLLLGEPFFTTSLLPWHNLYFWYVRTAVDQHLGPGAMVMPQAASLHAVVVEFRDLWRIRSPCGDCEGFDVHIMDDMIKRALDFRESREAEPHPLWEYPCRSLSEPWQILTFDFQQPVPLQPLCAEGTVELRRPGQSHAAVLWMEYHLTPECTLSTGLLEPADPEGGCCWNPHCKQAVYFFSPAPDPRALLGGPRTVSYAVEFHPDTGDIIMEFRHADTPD

[7] = biological target: T2, Nicotinamide N-methyltransferase (Homo sapiens); experiment: Nonompetitive inhibition of human NNMT (1 to 264 residues) expressed in Escherichia coli BL21 (DE3) at 1 to 250 uM measured for 20 mins in presence of varying concentration of nicotinamide by Lineweaver-Burk plot analysis
[8] = biological target: N-lysine methyltransferase SMYD2 (Homo sapiens, UniProt Q9NRG4); experiment: Inhibition of SMYD2 (unknown origin) using [3H]-SAM as co-factor by scintillation proximity assay
Sequence of N-lysine methyltransferase SMYD2 (Q9NRG4 whole entry): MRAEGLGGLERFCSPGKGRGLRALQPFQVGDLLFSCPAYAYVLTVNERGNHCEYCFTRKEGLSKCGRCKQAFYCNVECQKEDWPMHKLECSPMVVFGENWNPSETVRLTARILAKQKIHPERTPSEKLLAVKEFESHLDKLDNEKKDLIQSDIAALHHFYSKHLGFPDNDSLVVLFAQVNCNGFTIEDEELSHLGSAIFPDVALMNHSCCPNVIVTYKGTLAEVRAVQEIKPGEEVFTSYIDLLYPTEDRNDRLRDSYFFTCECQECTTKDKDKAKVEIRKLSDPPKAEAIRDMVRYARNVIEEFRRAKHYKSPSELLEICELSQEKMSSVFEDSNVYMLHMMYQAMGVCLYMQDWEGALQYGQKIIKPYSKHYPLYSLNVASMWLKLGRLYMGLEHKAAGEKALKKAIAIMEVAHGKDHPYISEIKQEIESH

[9] = biological target: Histone-lysine N-methyltransferase, H3 lysine-79 specific (Homo sapiens, UniProt Q8TEK3); experiment: Inhibition of DOT1L (unknown origin) after 1 hr by filter-based assay
Sequence of Histone-lysine N-methyltransferase, H3 lysine-79 specific (Q8TEK3 whole entry, the tested form may be a part): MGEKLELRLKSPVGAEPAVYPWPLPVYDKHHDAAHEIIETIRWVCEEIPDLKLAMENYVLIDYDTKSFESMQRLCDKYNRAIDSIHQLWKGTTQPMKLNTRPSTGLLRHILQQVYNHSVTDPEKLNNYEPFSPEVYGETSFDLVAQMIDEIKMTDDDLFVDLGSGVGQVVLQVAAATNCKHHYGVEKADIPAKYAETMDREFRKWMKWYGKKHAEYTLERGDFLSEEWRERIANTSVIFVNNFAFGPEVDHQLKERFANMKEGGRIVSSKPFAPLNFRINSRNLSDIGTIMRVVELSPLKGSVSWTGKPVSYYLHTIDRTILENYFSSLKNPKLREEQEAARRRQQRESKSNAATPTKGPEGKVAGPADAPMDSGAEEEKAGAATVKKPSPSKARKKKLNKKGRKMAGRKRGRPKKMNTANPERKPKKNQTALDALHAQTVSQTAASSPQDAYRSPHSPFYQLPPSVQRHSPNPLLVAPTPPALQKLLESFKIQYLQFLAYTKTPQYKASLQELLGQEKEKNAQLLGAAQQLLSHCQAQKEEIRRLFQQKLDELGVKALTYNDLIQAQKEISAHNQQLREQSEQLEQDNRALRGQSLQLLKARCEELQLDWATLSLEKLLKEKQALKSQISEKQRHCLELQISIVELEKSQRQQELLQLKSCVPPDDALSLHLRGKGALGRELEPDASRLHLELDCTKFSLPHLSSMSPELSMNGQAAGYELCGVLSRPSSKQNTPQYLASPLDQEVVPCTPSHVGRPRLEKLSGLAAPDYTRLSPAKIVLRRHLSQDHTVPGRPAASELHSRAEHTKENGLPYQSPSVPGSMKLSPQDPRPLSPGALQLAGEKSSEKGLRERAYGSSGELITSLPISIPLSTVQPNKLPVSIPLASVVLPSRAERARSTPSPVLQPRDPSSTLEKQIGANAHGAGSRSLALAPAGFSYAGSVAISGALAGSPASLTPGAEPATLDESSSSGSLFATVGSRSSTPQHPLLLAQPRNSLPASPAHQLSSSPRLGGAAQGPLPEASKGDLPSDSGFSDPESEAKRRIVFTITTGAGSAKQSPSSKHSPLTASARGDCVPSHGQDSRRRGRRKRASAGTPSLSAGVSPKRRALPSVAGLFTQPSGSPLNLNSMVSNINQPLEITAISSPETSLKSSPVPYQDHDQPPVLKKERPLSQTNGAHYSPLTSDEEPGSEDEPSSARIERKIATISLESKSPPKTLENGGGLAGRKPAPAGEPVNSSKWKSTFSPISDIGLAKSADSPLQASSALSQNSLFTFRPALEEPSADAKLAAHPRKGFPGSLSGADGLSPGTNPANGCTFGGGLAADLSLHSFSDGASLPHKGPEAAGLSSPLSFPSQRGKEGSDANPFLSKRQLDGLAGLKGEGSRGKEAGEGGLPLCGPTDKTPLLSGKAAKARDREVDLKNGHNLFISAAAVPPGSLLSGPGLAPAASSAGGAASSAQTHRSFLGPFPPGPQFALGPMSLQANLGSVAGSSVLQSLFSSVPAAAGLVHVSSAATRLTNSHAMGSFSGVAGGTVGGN

[10] = biological target: T2, Nicotinamide N-methyltransferase (Homo sapiens); experiment: Competitive inhibition of human NNMT (1 to 264 residues) expressed in Escherichia coli BL21 (DE3) at 1 to 250 uM measured for 20 mins in presence of varying concentration of SAM by Lineweaver-Burk plot analysis

Row | Structure (SMILES) | IC50 [1] [µM] | Kd [2] [µM] | deltaS [3] [cal/mol/deg] | deltaH [4] [kcal/mol] | IC50 [5] [µM] | IC50 [6] [µM] | inhibition [7] | IC50 [8] [µM] | IC50 [9] [µM] | inhibition [10]
1 | NC(=O)c1cccc(CCN(CC[C@H](N)C(=O)O)C[C@H]2O[C@@H](n3cnc4c(N)ncnc43)[C@H](O)[C@@H]2O)c1 | 160 | 42.8 | 11.4 | -2.5 | – | – | – | – | – | –
2 | NC(=O)c1cccc(CCN(CCC[C@H](N)C(=O)O)C[C@H]2O[C@@H](n3cnc4c(N)ncnc43)[C@H](O)[C@@H]2O)c1 | 14 | 2.7 | 10 | -4.6 | 40 | 20 | Active | 62 | 1.3 | Active
